Experimental data published in the kinase profiling compilation of Christmann-Franck et al. (2016).
Several values for one entry are separate records, joined by “and”; a condition that tells them apart may be missing. Equal entries are not always repeated.

Assays:
Experiment in all cases: Caliper, Mobility shift assay off-chip
FGFR3 (human) = FGFR3 (human) (UniProt P22607); settings: compound 0.1 µM
SGK1 (human) = SGK1 (human) (UniProt O00141)
MARK1 (human) = MARK1 (human) (UniProt Q9P0L2)
CAMK2G (human) = CAMK2G (human) (UniProt Q13555)
FGFR4 (human) = FGFR4 (human) (UniProt P22455)
RPS6KB1 (human) = RPS6KB1 (human) (UniProt P23443)
STK3 (human) = STK3 (human) (UniProt Q13188)
MAPK11 (human) = MAPK11 (human) (UniProt Q15759)
PAK2 (human) = PAK2 (human) (UniProt Q13177)
AKT3 (human) = AKT3 (human) (UniProt Q9Y243)
PRKD1 (human) = PRKD1 (human) (UniProt Q15139)
ABL2 (human) = ABL2 (human) (UniProt P42684)
PRKD3 (human) = PRKD3 (human) (UniProt O94806)
[1] = system: FLT3 (human), P36888 [D835Y]
AURKC (human) = AURKC (human) (UniProt Q9UQB9)
PRKD2 (human) = PRKD2 (human) (UniProt Q9BZL6)
SYK (human) = SYK (human) (UniProt P43405)
FER (human) = FER (human) (UniProt P16591); settings: compound 0.1 µM
CAMK2D (human) = CAMK2D (human) (UniProt Q13557)
CSNK1D (human) = CSNK1D (human) (UniProt P48730)
PRKCZ (human) = PRKCZ (human) (UniProt Q05513)
NEK2 (human) = NEK2 (human) (UniProt P51955)
DCLK2 (human) = DCLK2 (human) (UniProt Q8N568)
[2] = system: ABL1 (human), P00519 [H396P]
AURKB (human) = AURKB (human) (UniProt Q96GD4)
LCK (human) = LCK (human) (UniProt P06239)
IRAK4 (human) = IRAK4 (human) (UniProt Q9NWZ3)
HCK (human) = HCK (human) (UniProt P08631)
MARK3 (human) = MARK3 (human) (UniProt P27448)
PRKG1 (human) = PRKG1 (human) (UniProt Q13976)
MAPK1 (human) = MAPK1 (human) (UniProt P28482)
RPS6KA4 KD1 KD2 (human) = RPS6KA4 KD1 KD2 (human) (UniProt O75676)
CHEK2 (human) = CHEK2 (human) (UniProt O96017)
AKT1 (human) = AKT1 (human) (UniProt P31749)

PRKG1 (human), sequence (Q13976 whole entry, looked up): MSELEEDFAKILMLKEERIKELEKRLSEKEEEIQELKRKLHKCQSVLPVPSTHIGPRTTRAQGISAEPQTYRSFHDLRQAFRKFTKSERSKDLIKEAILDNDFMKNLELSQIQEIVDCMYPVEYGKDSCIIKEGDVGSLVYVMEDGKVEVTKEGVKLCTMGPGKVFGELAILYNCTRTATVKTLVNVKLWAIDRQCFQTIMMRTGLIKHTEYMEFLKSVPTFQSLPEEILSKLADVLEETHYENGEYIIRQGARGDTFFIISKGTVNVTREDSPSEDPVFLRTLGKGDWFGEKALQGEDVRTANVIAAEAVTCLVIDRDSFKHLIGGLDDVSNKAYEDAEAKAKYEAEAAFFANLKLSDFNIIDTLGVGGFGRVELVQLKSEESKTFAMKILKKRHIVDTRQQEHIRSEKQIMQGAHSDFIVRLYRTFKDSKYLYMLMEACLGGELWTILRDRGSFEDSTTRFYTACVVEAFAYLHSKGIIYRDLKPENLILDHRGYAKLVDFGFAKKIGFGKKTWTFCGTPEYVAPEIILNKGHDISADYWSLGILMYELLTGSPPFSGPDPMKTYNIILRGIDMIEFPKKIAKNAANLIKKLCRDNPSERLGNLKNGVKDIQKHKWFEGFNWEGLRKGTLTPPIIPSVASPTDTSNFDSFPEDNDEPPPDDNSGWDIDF
NEK2 (human), sequence (P51955 whole entry, looked up): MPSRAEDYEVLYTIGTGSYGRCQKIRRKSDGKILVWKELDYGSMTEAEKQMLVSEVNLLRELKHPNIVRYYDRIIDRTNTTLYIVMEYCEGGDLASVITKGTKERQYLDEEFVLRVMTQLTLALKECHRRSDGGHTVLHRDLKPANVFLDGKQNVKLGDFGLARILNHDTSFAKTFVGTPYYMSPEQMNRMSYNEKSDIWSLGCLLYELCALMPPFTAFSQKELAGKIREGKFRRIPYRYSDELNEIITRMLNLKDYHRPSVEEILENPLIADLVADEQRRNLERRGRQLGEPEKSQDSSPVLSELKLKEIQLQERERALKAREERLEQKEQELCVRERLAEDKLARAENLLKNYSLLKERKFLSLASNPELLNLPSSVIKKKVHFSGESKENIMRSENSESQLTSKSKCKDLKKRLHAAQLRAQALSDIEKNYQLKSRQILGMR
PRKD3 (human), sequence (O94806 whole entry, looked up): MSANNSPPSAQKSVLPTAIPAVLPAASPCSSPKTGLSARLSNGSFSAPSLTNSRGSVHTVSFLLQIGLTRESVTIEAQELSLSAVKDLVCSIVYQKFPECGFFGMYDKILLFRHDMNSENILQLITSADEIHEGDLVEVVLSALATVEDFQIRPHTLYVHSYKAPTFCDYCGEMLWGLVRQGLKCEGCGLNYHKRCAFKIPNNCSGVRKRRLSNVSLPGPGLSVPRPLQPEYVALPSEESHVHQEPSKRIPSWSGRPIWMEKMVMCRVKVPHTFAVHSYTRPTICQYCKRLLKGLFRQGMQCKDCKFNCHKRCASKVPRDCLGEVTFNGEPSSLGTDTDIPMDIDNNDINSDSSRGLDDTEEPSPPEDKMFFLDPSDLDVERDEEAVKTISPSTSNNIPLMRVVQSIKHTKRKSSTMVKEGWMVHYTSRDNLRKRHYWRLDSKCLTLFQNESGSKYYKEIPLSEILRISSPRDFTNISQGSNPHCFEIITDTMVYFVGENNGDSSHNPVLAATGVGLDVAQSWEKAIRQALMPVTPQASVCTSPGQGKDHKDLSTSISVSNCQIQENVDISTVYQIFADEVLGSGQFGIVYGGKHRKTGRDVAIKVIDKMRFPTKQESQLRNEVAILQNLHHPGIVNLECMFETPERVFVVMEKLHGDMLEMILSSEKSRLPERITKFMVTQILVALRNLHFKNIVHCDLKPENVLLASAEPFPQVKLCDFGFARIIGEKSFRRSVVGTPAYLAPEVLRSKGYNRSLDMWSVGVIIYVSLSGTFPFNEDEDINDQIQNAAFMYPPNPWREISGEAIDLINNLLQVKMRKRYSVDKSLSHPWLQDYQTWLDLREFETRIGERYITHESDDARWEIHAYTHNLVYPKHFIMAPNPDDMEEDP
SGK1 (human), sequence (O00141 whole entry, looked up): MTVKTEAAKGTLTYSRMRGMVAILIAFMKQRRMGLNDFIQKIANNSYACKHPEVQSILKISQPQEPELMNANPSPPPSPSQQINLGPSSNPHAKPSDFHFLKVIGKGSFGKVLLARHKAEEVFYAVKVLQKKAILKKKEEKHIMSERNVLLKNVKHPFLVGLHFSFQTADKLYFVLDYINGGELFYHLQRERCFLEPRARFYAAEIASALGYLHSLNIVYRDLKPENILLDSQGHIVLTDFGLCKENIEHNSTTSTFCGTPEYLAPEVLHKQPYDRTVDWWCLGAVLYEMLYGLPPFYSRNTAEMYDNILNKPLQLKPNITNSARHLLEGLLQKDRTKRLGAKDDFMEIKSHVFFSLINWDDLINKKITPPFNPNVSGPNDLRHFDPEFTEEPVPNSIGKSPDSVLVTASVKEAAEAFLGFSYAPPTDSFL
MARK3 (human), sequence (P27448 whole entry, looked up): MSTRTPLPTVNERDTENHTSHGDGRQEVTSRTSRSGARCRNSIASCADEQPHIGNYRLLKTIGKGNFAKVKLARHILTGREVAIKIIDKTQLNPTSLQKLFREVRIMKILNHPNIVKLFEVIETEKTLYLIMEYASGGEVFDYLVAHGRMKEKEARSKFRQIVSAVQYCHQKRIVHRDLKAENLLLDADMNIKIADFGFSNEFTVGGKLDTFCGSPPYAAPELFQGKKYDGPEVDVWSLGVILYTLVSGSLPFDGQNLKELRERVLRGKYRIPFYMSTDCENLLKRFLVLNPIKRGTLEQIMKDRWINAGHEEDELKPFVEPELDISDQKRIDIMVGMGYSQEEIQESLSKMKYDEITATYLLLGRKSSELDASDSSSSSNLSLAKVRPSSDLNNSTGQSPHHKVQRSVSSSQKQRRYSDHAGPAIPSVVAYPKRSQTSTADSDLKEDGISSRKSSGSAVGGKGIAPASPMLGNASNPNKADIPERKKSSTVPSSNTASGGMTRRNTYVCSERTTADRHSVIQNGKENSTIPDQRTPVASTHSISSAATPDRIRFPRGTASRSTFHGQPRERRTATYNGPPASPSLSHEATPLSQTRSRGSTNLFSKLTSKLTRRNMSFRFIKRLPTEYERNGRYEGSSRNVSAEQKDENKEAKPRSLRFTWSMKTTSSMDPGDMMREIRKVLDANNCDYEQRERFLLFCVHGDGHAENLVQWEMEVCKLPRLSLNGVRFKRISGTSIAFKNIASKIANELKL
DCLK2 (human), sequence (Q8N568 whole entry, looked up): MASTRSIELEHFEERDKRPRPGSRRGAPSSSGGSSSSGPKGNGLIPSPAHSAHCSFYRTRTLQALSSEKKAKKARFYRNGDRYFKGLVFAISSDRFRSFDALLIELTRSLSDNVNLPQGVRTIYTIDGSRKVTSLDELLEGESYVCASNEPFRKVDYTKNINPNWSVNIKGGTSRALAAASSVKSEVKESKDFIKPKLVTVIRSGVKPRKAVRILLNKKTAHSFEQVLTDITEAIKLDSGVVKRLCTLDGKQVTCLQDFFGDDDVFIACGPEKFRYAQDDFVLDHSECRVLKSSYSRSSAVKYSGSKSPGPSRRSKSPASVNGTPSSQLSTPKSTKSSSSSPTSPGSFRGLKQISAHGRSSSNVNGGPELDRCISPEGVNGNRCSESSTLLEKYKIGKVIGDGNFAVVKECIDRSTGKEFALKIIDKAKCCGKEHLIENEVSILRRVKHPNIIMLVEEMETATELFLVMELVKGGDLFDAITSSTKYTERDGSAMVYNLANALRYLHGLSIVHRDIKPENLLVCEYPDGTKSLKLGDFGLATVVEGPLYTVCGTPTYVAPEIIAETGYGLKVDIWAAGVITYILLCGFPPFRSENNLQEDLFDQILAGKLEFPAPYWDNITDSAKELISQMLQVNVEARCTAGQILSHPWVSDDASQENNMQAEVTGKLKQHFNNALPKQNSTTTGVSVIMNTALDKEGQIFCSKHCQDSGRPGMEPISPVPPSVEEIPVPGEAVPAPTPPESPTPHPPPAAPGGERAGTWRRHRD
RPS6KA4 KD1 KD2 (human), sequence (O75676 whole entry, looked up): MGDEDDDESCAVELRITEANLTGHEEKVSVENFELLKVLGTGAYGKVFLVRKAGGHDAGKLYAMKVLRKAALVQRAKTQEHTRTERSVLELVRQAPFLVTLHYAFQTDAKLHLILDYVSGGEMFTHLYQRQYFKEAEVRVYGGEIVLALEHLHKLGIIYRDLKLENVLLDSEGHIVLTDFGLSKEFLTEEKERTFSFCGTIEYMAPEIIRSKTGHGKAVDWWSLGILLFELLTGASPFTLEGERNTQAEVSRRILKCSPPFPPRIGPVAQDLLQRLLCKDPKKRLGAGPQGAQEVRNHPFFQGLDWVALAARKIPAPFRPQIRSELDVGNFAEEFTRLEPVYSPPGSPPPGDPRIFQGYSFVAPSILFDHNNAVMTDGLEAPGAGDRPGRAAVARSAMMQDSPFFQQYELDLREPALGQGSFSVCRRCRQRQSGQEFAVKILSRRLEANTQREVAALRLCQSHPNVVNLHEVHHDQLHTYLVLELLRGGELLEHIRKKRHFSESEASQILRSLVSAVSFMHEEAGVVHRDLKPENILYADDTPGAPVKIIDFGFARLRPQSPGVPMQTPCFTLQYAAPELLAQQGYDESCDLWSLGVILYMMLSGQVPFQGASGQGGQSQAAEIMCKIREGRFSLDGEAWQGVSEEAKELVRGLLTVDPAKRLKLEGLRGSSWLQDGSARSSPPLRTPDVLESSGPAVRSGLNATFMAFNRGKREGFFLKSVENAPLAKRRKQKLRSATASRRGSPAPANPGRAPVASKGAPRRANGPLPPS
AURKC (human), sequence (Q9UQB9 whole entry, looked up): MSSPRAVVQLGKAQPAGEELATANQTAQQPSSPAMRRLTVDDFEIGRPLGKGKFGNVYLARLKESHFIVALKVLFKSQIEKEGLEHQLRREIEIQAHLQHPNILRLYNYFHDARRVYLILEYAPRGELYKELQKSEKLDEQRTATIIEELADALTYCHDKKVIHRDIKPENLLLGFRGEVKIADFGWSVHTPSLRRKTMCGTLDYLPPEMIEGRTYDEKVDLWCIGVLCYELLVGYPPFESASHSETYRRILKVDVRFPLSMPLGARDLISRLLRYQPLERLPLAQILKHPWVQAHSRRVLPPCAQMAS

inhibition (FGFR3 (human)): 34.5%
inhibition (SGK1 (human); compound 0.1 µM): 1.7%
inhibition (SGK1 (human); compound 1.0 µM): -6.4%
inhibition (MARK1 (human); compound 0.1 µM): 1.2%
inhibition (MARK1 (human); compound 1.0 µM): -13.9%
inhibition (CAMK2G (human); compound 0.1 µM): -0.2%
inhibition (CAMK2G (human); compound 1.0 µM): -1.5%
inhibition (FGFR4 (human); compound 0.1 µM): -0.6%
inhibition (FGFR4 (human); compound 1.0 µM): 15.7%
inhibition (RPS6KB1 (human); compound 0.1 µM): -19.5%
inhibition (RPS6KB1 (human); compound 1.0 µM): -2.1%
inhibition (STK3 (human); compound 0.1 µM): 3.4%
inhibition (STK3 (human); compound 1.0 µM): 0.7%
inhibition (MAPK11 (human); compound 0.1 µM): -11%
inhibition (MAPK11 (human); compound 1.0 µM): -1.8%
inhibition (PAK2 (human); compound 0.1 µM): -38.4%
inhibition (PAK2 (human); compound 1.0 µM): -0.3%
inhibition (AKT3 (human); compound 0.1 µM): 6.4%
inhibition (AKT3 (human); compound 1.0 µM): -5.8%
inhibition (PRKD1 (human); compound 0.1 µM): -3.6%
inhibition (PRKD1 (human); compound 1.0 µM): -6.6%
inhibition (ABL2 (human); compound 0.1 µM): -5.3%
inhibition (ABL2 (human); compound 1.0 µM): 6.8%
inhibition (PRKD3 (human); compound 0.1 µM): -6.1%
inhibition (PRKD3 (human); compound 1.0 µM): 3.6%
inhibition ([1]; compound 0.1 µM): 2.5%
inhibition ([1]; compound 1.0 µM): 13.3%
inhibition (AURKC (human); compound 0.1 µM): 4.3%
inhibition (AURKC (human); compound 1.0 µM): 55.5%
inhibition (PRKD2 (human); compound 0.1 µM): -8.3%
inhibition (PRKD2 (human); compound 1.0 µM): -3.5%
inhibition (SYK (human); compound 0.1 µM): 1.2%
inhibition (SYK (human); compound 1.0 µM): -1.7%
inhibition (FER (human)): -6.8%
inhibition (CAMK2D (human); compound 0.1 µM): -16.1%
inhibition (CAMK2D (human); compound 1.0 µM): -3.6%
inhibition (CSNK1D (human); compound 0.1 µM): 7.8%
inhibition (CSNK1D (human); compound 1.0 µM): 8.9%
inhibition (PRKCZ (human); compound 0.1 µM): 3.2%
inhibition (PRKCZ (human); compound 1.0 µM): 6.8%
inhibition (NEK2 (human); compound 0.1 µM): -5.7%
inhibition (NEK2 (human); compound 1.0 µM): -0.9%
inhibition (DCLK2 (human); compound 0.1 µM): -6.4%
inhibition (DCLK2 (human); compound 1.0 µM): -2.5%
inhibition ([2]; compound 0.1 µM): 10.6%
inhibition ([2]; compound 1.0 µM): 13.9%
inhibition (AURKB (human); compound 0.1 µM): 10.5%
inhibition (AURKB (human); compound 1.0 µM): 34.7%
inhibition (LCK (human); compound 0.1 µM): 9.2%
inhibition (LCK (human); compound 1.0 µM): 0.5%
inhibition (IRAK4 (human); compound 0.1 µM): -12%
inhibition (IRAK4 (human); compound 1.0 µM): 4.2%
inhibition (HCK (human); compound 0.1 µM): -5.1%
inhibition (HCK (human); compound 1.0 µM): 1.6%
inhibition (MARK3 (human); compound 0.1 µM): -7.9%
inhibition (MARK3 (human); compound 1.0 µM): -4.1%
inhibition (PRKG1 (human); compound 0.1 µM): 4.3% and 6.4%
inhibition (PRKG1 (human); compound 1.0 µM): -3.3% and -9.8%
inhibition (MAPK1 (human); compound 0.1 µM): -2.4%
inhibition (MAPK1 (human); compound 1.0 µM): -1.9%
inhibition (RPS6KA4 KD1 KD2 (human); compound 0.1 µM): -2.5%
inhibition (RPS6KA4 KD1 KD2 (human); compound 1.0 µM): -1.8%
inhibition (CHEK2 (human); compound 0.1 µM): -0.4%
inhibition (CHEK2 (human); compound 1.0 µM): 4.5%
inhibition (AKT1 (human); compound 0.1 µM): -1.3%
inhibition (AKT1 (human); compound 1.0 µM): 0.7%
SMILES: Cn1cc(-c2cnc3ccc4ccc(CS(=O)(=O)CCc5ccccn5)cc4c(=O)c3c2)cn1
